Consider one substance from US11937624B2, “Food composition” (INNOVAFOOD AB, priority 2011, dated 2024).

Marks after values point to notes of the source that are not given here.

Assay [1] deals with blood glucose. Briefly: Postprandial blood glucose response to white wheat bread test meal with test drink (Example 1). In kind it is in vivo, human. As for the experimental part:
(§1) Four different beverages were tested by the inventors; one reference, one with only the amino acid mixture, one with only CrPic, and one combining the amino acid mixture with CrPic. The amino acids used were L-leucine, L-isoleucine, L-lysine, L-valine and L-threonine.
(§2) The reference (“Ref”) drink was made out of tap water and aroma, poured into 330 mL bottles and carbonated with a Table Top Carbonator CF-121 (Omve) set at 10 g CO2/L.
(§3) The beverage with CrPic (“CrPic”) was prepared by dissolving one thawed pellet of concentrated CrPic solution (4.0 grams) in 308.0 grams of carbonated tap water and thereafter 0.19 grams of aroma was added. Additional CO2 was added just before serving with a Soda Streamer to mimic the amount in the Ref drink.
(§4) The beverage with amino acids (“5AA”) was prepared by dissolving 6.9 grams of the amino acid mixture in 305.1 grams of carbonated tap water and thereafter 0.19 grams of aroma was added. Additional CO2 was added just before serving with a Soda Streamer to mimic the amount in the Ref drink. See Table 7 for composition of amino acid mixture.
(§5) The beverage with amino acids and CrPic (“5AA+CrPic”) was prepared by dissolving 6.9 grams of the amino acid mixture and one thawed pellet of concentrated CrPic solution (4 grams) in 301.1 grams of carbonated tap water and thereafter 0.19 grams of aroma was added. Additional CO2 was added just before serving with a Soda Streamer to mimic the amount in the Ref drink.
(§6) The test meals consisted of sandwiches made of white wheat bread (Dollarfranska, Lockarps, Lockarp, Sweden), contributing with 50 grams of available starch, and the test drinks. The white wheat bread was spread with 10 grams of butter (Bregott, Arla, Stockholm, Sweden) and 24 grams of orange marmalade (kindly provided by Önos, Procordia Food, Eslöv). The sandwiches provided 9 grams of protein and an additional amount of carbohydrates from the marmalade and butter of 14 grams. A schematic overview of the composition of the different test meals is found in Table 2.
(§7) Nineteen healthy subjects, 11 men and 8 women, aged 38-60 (51±1 years; mean±SEM) and with body mass indexes of 24-30 (27.3±0.3 kg/m2; mean±SEM) were included in the study. All subjects had normal fasting blood glucose levels (5.6±0.1 mmol/L, mean±SEM).
(§8) The test subjects were instructed to eat a dinner of own choice (but with a low content of fiber) as well as an evening meal consisting of white wheat bread and a beverage, and to eat the same meals the evening before every test occasion. After the white wheat bread meal at around 9-10 p.m., the subjects were thereafter to restrain from ingesting anything but maximum a half glass of water on the morning of the test occasion.
(§9) Upon arrival at the laboratory at 07:45 on the test day, the subjects were sat to rest before a fasting capillary blood sample was drawn. Immediately thereafter, the test meal was served and a digital timer was started. Together with the drinks, a […] sandwich meal was served, containing 64 g available carbohydrates, 9.1 g protein and 11.7 g fat. The subjects were instructed to finish the meal in 10-15 minutes and to alternate between eating and drinking. All meals were well tolerated, and the subjects had no problems finishing eating within the 10-15 min period.
(§10) Capillary blood samples were taken at fasting and 15, 30, 45, 60, 90, 120 and 180 min after the ingestion of the meal for the analysis of blood glucose and serum insulin.
(§11) Blood glucose was immediately analyzed in serum with the use of a B-glucose analyzer (Hemocue AB, Ängelholm, Sweden). Serum tubes were centrifuged for 5 min (3000 rpm) and serum was frozen at −18° C. for the measurement of insulin. The serum insulin measurement was performed on an integrated immunoassay analyzer (CODA open Microplate System, Bio-Rad Laboratories, Hercules, CA) by using an enzyme immunoassay kit (Mercodia Insulin ELISA, Mercodia AB, Uppsala, Sweden). […]

In assay [2] the test system is serum insulin. Briefly: Postprandial serum insulin response to white wheat bread test meal with test drink (Example 1). It is filed as in vivo, human. The method, then: as §1, §2, §3, §4, §5, §6, §7, §8, §9, §10, §11
Setting [3] is: Table 5 comparison, 0-120 min, mean ± SEM, n=19 (5AA n=18).
The mark [4] stands for this setting: Table 5 comparison, vs Ref meal.
Where [5] appears, read: healthy subjects, carbonated water drink with sandwich meal, 0-60 min, mean ± SEM, n=19 (5AA n=18).
[6] abbreviates: healthy subjects, carbonated water drink with sandwich meal, 0-120 min, mean ± SEM, n=19 (5AA n=18).
Where [7] appears, read: healthy subjects, carbonated water drink with sandwich meal, 0-180 min, mean ± SEM, n=19 (5AA n=18).

For the substance Chromium tripicolinate [CrPic], the “Change in glucose iAUC 0-60 min as a percentage of the reference meal” value in assay [1] (0-60 min, vs Ref meal) was −13%. Moreover, the “Change in glucose iAUC 0-120 min as a percentage of the reference meal” value in assay [1] (0-120 min, vs Ref meal) is listed as −6%. Besides, the “Change in glucose iAUC 0-180 min as a percentage of the reference meal” value in assay [1] (0-180 min, vs Ref meal) is −4%. Moreover, the Glucose iAUC 0-120 min in assay [1] (setting [3]) is 189 ± 20.7 mmol·min/L. Also, the “Change (%) of glucose iAUC 0-120 min” value in assay [1] (setting [4]) is listed as −6%. Further, in assay [1] (setting [5]), the “Blood glucose iAUC 0-60 min” value is listed as 100.2 ± 9.3^ac mmol min/L. In addition, the “Blood glucose iAUC 0-120 min” value in assay [1] (setting [6]) is listed as 189.1 ± 20.7^ab mmol min/L. In addition, in assay [1] (setting [7]), the “Blood glucose iAUC 0-180 min” value was determined as 222.3 ± 25.6 mmol·min/L. Moreover, the “Change in insulin iAUC 0-60 min as a percentage of the reference meal” value in assay [2] (0-60 min, vs Ref meal) was −12%. For the same substance, the “Change in insulin iAUC 0-120 min as a percentage of the reference meal” value in assay [2] (0-120 min, vs Ref meal) is −10%. Besides, the “Change in insulin iAUC 0-180 min as a percentage of the reference meal” value in assay [2] (0-180 min, vs Ref meal) is listed as −11%. In addition, the Insulin iAUC 0-120 min in assay [2] (setting [3]) is 15.4 ± 1.9 nmol·min/L; in assay [2] (setting [6]) it was 15.4 ± 1.9^a nmol · min/L. In addition, the “Change (%) of insulin iAUC 0-120 min” value in assay [2] (setting [4]) is listed as −10%. The “Insulin iAUC 0-60 min” value in assay [2] (setting [5]) is 7.5 ± 0.9^a nmol · min/L. The “Insulin iAUC 0-180 min” value in assay [2] (setting [7]) is listed as 18.5 ± 2.6^b nmol · min/L.
